# Measured values reported in patent US10273240B2, “Cortistatin analogues, syntheses, and uses thereof” (President and Fellows of Harvard College, priority 2015, dated 2019).
# Experiments:
# [1] = test system: Smad2 T220 and Smad3 T179 phosphorylation; experiment: TGF-β-stimulated Smad2 T220 and Smad3 T179 phosphorylation immunoblot; format: cell-based, human; settings: HaCaT cells
# Procedure: (§1) Kinase Assays. Data was quantified with ImageJ and plotted and fitted with GraphPad Prism 6.0. For STAT1 transactivation domain (TAD), 750 ng of GST-STAT1 TAD (residues 639-750) was incubated with ˜50 ng recombinant CDK8 module at 30° C. for 8 min in kinase buffer (25 mM Tris pH 8, 2 mM DTT, 100 μM cold ATP, 100 mM KCl, 10 mM MgCl2 and 2.5 μCi [γ-^32P] ATP (Perkin Elmer) per reaction). […] 12% SDS-PAGE gels were subsequently silver stained, exposed for 18 h on a Phosphor Screen and imaged (Typhoon 9400, GE Life Sciences). For pol II CTD, 400 ng of GST-CTD (murine sequence) was incubated with ˜40 ng recombinant CDK8 module, 25 ng TFIIH, or 40 ng P-TEFb at 30° C. for 60 min in kinase buffer. Kinase amounts were chosen to give similar total pol II CTD signal. 9% SDS-PAGE gels were silver stained and exposed as above. In vitro FLAG-CDK8 kinase assays used ˜40 ng kinase and 500 ng GST-CTD. For STAT1 or Smad2/3, cells were treated with compound for 1 h followed by IFN-γ or TGF-β1 for 1 h, then washed twice with cold PBS, and lysed (RIPA buffer with inhibitors R0278, P8340, P0044, P5762 Sigma-Aldrich). Standard immunoblotting was then performed with one immunoblot shown. All experiments were performed twice.
# [2] = target: T1, ROCK2 in MOLM-14 cell lysate (Homo sapiens, UniProt O75116); experiment: Native kinase capture immunoblot, ROCK2; format: binding
# T1 construct: endogenous in cells; host or cells: MOLM-14 cell lysate
# Procedure: (§2) Native Kinase Capture Immunoblot and Native Kinome-Wide Profiling. […] Experiment was performed twice with one immunoblot shown.
# [3] = test system: subcutaneously implanted SET-2 cells; experiment: SET-2 subcutaneous xenotransplant model; format: in vivo; settings: SCID beige mice, IP dosing daily
# [4] = target: T2, CDK12 in MOLM-14 cell lysate (Homo sapiens, UniProt Q9NYV4); experiment: Native kinase capture immunoblot, CDK12; format: binding
# T2 construct: endogenous in cells; host or cells: MOLM-14 cell lysate
# Procedure: as §2
# [5] = target: T3, CDK13 in MOLM-14 cell lysate (Homo sapiens, UniProt Q14004); experiment: Native kinase capture immunoblot, CDK13; format: binding
# T3 construct: endogenous in cells; host or cells: MOLM-14 cell lysate
# Procedure: as §2
# CDK9 (P-TEFb) = target: T4, CDK9 (P-TEFb) (Homo sapiens, UniProt P50750); experiment: In vitro kinase assay, CDK9 (P-TEFb); format: biochemical
# T4 construct: made in house
# Procedure: as §1
# Protein Purification. Buffers for purification and elution of recombinant proteins included 0.25 mM PMSF, 1 mM DTT, 1 mM benzamidine, and 1 mM sodium metabisulfite. […]
# T3 sequence (Q14004 whole entry): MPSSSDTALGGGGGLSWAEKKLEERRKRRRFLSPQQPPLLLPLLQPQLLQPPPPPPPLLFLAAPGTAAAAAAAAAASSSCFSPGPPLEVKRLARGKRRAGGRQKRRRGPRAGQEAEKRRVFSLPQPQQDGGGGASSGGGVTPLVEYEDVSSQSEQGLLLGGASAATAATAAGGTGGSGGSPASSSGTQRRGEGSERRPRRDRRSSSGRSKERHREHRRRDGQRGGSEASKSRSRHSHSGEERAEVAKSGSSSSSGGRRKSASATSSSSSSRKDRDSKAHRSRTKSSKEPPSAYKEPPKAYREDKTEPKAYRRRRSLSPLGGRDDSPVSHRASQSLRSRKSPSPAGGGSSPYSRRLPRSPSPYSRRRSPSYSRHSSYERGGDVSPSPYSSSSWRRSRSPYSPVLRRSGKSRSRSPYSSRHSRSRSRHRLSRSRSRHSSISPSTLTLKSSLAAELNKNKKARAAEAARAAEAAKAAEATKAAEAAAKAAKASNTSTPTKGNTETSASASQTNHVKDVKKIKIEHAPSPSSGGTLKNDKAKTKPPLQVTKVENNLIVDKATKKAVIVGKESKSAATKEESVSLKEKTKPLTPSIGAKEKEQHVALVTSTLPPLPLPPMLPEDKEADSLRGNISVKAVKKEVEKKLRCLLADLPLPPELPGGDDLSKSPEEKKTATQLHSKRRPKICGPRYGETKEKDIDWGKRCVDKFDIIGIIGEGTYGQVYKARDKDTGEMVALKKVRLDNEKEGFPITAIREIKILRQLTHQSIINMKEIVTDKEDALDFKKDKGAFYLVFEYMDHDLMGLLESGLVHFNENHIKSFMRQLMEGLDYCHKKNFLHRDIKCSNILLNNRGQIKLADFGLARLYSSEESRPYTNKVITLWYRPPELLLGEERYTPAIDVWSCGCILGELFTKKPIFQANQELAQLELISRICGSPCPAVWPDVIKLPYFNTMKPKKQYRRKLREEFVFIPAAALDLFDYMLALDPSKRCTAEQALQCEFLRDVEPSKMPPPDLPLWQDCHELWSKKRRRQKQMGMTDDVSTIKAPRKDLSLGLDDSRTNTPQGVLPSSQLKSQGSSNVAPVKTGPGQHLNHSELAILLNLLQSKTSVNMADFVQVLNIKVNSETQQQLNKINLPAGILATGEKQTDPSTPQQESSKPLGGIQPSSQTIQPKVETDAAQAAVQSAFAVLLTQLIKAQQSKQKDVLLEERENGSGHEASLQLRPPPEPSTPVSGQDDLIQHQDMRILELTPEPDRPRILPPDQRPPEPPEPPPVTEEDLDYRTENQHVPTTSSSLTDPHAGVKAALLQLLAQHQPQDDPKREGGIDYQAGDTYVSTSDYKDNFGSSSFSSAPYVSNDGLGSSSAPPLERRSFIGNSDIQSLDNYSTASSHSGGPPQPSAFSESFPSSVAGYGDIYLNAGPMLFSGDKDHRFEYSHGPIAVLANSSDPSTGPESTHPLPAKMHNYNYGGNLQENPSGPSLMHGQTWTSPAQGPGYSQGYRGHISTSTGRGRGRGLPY
# T3 sequence (O75909 whole entry partner): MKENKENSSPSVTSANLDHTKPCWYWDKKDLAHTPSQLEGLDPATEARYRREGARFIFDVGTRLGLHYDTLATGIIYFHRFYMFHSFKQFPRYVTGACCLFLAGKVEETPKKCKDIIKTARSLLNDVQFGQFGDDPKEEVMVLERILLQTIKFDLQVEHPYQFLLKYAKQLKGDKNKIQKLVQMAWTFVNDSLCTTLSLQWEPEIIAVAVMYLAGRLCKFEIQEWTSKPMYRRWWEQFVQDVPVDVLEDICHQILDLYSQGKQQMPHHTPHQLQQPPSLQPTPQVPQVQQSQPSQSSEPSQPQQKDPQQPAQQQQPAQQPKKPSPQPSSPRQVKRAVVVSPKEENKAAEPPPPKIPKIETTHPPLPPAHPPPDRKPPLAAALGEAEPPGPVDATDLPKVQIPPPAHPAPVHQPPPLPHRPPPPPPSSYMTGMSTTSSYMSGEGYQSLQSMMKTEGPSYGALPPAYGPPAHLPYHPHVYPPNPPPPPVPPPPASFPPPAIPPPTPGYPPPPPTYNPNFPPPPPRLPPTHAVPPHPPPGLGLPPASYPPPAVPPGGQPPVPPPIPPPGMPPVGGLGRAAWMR
# T4 sequence (P50750 1-345 limits assumed): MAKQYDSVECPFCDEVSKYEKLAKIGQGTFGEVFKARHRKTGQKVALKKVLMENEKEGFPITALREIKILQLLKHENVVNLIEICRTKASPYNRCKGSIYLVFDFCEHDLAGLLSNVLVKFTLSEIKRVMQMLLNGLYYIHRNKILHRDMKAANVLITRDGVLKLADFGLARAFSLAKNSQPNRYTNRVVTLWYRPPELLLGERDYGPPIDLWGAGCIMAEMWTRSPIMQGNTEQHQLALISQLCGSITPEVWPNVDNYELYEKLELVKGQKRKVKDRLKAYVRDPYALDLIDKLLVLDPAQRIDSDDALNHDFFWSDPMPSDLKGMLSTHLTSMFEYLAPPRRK
# T4 sequence (O60563 1-266 partner limits assumed): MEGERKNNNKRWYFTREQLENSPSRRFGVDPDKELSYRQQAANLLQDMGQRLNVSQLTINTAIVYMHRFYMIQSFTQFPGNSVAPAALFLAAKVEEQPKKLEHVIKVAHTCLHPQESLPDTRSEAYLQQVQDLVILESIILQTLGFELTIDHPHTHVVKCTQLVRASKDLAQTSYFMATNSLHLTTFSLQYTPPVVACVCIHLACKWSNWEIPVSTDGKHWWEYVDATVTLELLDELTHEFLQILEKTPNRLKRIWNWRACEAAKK
# T1 sequence (O75116 whole entry): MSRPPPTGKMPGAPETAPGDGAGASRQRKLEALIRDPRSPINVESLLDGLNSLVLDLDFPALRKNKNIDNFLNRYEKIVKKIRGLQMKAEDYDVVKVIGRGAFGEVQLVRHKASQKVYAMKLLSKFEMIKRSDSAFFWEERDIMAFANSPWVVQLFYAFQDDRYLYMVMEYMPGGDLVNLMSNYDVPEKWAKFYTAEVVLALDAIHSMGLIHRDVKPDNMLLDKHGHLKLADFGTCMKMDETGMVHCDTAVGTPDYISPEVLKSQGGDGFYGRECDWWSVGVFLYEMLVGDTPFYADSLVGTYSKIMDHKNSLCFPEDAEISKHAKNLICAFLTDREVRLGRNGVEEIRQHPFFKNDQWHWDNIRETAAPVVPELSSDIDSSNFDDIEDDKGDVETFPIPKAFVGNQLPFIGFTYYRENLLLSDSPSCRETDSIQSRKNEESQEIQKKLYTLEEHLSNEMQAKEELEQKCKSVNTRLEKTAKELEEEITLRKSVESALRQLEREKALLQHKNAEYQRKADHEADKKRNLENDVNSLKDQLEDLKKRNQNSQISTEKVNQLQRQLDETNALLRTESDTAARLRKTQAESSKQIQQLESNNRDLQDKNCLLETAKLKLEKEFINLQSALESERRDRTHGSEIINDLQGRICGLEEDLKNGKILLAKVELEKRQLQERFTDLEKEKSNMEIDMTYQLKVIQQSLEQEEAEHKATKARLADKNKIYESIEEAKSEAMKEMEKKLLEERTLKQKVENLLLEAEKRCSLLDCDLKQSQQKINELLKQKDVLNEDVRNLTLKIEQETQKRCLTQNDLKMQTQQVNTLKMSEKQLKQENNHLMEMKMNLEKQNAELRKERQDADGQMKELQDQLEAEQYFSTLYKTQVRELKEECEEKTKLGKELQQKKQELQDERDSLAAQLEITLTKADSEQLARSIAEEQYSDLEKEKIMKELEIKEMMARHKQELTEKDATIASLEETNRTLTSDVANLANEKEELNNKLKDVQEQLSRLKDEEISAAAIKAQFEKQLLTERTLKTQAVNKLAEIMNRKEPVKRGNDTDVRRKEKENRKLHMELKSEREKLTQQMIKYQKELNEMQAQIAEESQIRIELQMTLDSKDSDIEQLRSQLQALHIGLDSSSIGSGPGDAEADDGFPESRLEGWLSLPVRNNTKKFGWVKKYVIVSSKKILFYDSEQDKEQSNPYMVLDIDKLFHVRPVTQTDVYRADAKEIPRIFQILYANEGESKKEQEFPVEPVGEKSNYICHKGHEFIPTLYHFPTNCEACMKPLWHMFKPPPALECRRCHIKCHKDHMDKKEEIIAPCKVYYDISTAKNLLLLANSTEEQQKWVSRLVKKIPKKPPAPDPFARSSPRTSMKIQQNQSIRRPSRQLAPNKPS
compound,measurement,setting,value
"CN(C)[C@H]1C[C@@]23CC[C@@]4(O2)C(=CC[C@@]2(C)[C@@H](c5ccc6ccncc6c5)CC[C@H]24)C=C3[C@@H](O)[C@@H]1O [CA, cortistatin A]",inhibition of Smad2 T220 and Smad3 T179 phosphorylation,[1],dose-dependently inhibited
same,binding of ROCK2 (no binding up to),[2],> 2500 nM
same,body weight,[3],no loss in body weight
same,tumor volume reduction,[3],71%
same,binding of CDK12 (no binding at up to),[4],> 2500 nM
same,binding of CDK13 (no binding at up to),[5],> 2500 nM
same,inhibition of CDK9 (P-TEFb),CDK9 (P-TEFb),did not inhibit
